# What was measured:
# [1] = system: Santa Luiza strain of the southern cattle tick, larvae; test: FAO larval packet test, Santa Luiza strain (Example 5); settings: for resistance of the strain: Santa Luiza strain
# [2] = system: horn fly (Kerrville strain, susceptible reference strain); test: Horn fly adult treated filter paper bioassay, Kerrville strain (Example 1); assay type: in vivo, Haematobia irritans irritans; settings: mortality after 2 hours; for effect on toxicity of chlorpyrifos: combined with chlorpyrifos 8.0 μg/cm^2; for effect on toxicity of coumaphos: combined with coumaphos 10 μg/cm^2; for effect on toxicity of pirimiphos-methyl: combined with pirimiphos-methyl 3.0 μg/cm^2
# Experimental: (§1) The horn fly strain used in this trial (referred to as the Kerrville strain) is an in vitro strain being maintained on citrated bovine blood, and serves as a susceptible reference strain. Adult flies were exposed to organophosphate pesticide alone or in combination with varying ratios of atrazine or propazine (shown in FIGS. 1–8). Concentrations of diazinon, pirimiphos-methyl, chlorpyrifos and coumaphos were 2.8, 3.0, 8.0, and 10 μg/cm^2, respectively (measured as the amount of pesticide applied per unit area of filter paper). Compounds were dissolved in acetone and applied onto filter paper, which was then placed into petri dishes with the adult flies and held at room temperature under normal lighting conditions. Flies were examined for mortality after 2 hours.
# [3] = system: horn fly (Oklahoma strain, challenged with diazinon); test: Horn fly adult treated filter paper bioassay, Oklahoma strain (Example 2); assay type: in vivo, Haematobia irritans irritans; settings: for effect on coumaphos toxicity / effect on diazinon toxicity / effect on pirimiphos-methyl toxicity: triazine applied as 1% w/v solution, mortality after 2 hours; for effect on toxicity of chlorpyrifos: very high chlorpyrifos levels (140.2 μg/cm^2 and above), triazine 1% w/v
# Experimental: as §1, with “Concentrations of diazinon, pirimiphos-methyl, chlorpyrifos and coumaphos were 2.8, 3.0, 8.0, and 10 μg/cm^2, respectively (measured as the amount of pesticide applied per unit area of filter paper).” left out
# The bioassays of Example 1 were repeated using an in vivo strain (referred to as the Oklahoma strain) maintained on steers. This horn fly strain was established using eggs from flies collected from cattle at an Oklahoma State University research ranch. The strain is maintained in vivo on steers at the USDA-ARS-KBUSLIRL, and has been challenged with diazinon. Conditions for the bioassay were the same as Example 1 except for the addition of the organophosphate fenthion, and the triazine synergists were applied as a 1% w/v solution.
# [4] = system: San Roman strain of the southern cattle tick, larvae; test: FAO larval packet test, San Roman strain (Example 3)
# Experimental: The strain used in these bioassays was the San Roman strain of the southern cattle tick (Boophilus microplus). […] The FAO larval packet test (LPT) was used to measure the susceptibility of tick larvae to acaricides. Dilutions of acaricide were prepared, dissolving the acaricide in trichloroethylene, then mixed with olive oil (ratio=2:1). A volume of 0.7 ml of the dilution was applied uniformly onto a piece of filter paper, and allowed to dry for 2 hr (trichloroethylene evaporates). The treated filter papers were folded into “packets” using bulldog clips, and approximately 100 larvae were added into each of “pockets”, which were then kept in a incubator (27° C., 90% RH) for 24 h before reading (# of dead and alive were counted under a magnifying glass).
# In a first trial, tick larvae were exposed to 1% atrazine alone or in combination with 0.3, 0.6, or 1.2% w/v coumaphos.
# In a second trial, tick larvae were exposed to varying concentrations of atrazine with either 0.3% coumaphos, 0.1 or 0.05% diazinon, or 0.01% coumaphos.
# [5] = system: San Felipe strain of the southern cattle tick, larvae; test: FAO larval packet test, San Felipe strain (Example 4); assay type: in vivo, Boophilus microplus
# Experimental: The bioassays were conducted using the same process as described in Example 3, using the San Felipe strain of the southern cattle tick.
# [6] = system: Munoz strain of the southern cattle tick, larvae; test: FAO larval packet test, Munoz strain (Example 7)
# brown dog tick larvae = test: FAO larval packet test, brown dog tick (Example 8); settings: for effect on larvae: coumaphos alone
# [7] = system: Pesqueria strain of the southern cattle tick, larvae; test: FAO larval packet test, Pesqueria strain (Example 6); settings: for mortality: 0.1% coumaphos alone; for resistance of the strain: Pesqueria strain
compound,measurement,setting,value
Cc1ccc(/N=C/N(C)/C=N/c2ccc(C)cc2C)c(C)c1 [amitraz],resistance of the strain,[1],70 fold
CCNc1nc(Cl)nc(NC(C)C)n1 [atrazine],effect on toxicity of chlorpyrifos,[2],neither atrazine nor propazine had any effect
same,effect on toxicity of coumaphos,[2],reduced the toxicity
same,effect on diazinon activity (fly mortality),"[2]; combined with diazinon 2.8 μg/cm^2, even at low ratio 0.25/1",significant synergistic effect
same,effect on toxicity of pirimiphos-methyl,[2],synergized
same,effect on coumaphos toxicity,[3],substantially as described in Example 1
same,effect on diazinon toxicity,[3],substantially as described in Example 1
same,effect on pirimiphos-methyl toxicity,[3],substantially as described in Example 1
same,effect on toxicity of chlorpyrifos,[3],did synergize
same,synergism with diazinon,"[4]; 0.1 or 0.05% diazinon, weaker than with coumaphos",Synergism was also observed
same,effect on coumaphos toxicity,"[4]; 1% atrazine with 0.3, 0.6 or 1.2% w/v coumaphos, first trial, 24 h",dramatically increased
same,mortality,"[4]; atrazine with 0.3% coumaphos, atrazine/coumaphos ratio 2/1, 24 h",100%
same,effect on chlorpyrifos toxicity,[4]; high atrazine/chlorpyrifos ratios (8/1 and above),synergized
same,effect on toxicity of 0.3% coumaphos,"[4]; varying atrazine concentrations, even at atrazine/coumaphos ratio 0.25/1, second trial",strongly synergized
same,toxicity of atrazine alone,[5]; all concentrations except 0.8%,virtually non-toxic
same,mortality,[5]; atrazine alone at 0.8%,5.2%
same,synergism with coumaphos,"[5]; combined with 0.1% coumaphos, even at lowest atrazine/coumaphos ratio 0.125/1",significant synergism
same,effect on toxicity of chlorpyrifos,[6]; 0.01% chlorpyrifos,significantly enhanced
same,synergism with coumaphos,[6]; 0.01% coumaphos,varying levels of synergism
same,synergism with diazinon,[6]; higher diazinon concentration 0.05% (data not shown),synergistic effect of atrazine was observed even at low atrazine/diazinon ratios
same,synergism with diazinon,"[6]; very low diazinon 0.005%, ratio 32/1",only provided a synergistic effect at high atrazine/diazinon ratios
same,mortality,brown dog tick larvae; atrazine alone 0.8%,25.7%
same,mortality,brown dog tick larvae; atrazine alone 1.0%,18.9%
same,mortality,brown dog tick larvae; atrazine alone at or below 0.4%,less than 4%
same,effect on coumaphos toxicity,"[7]; 0.1% coumaphos, atrazine/coumaphos ratio 2/1 and above, both trials",significantly enhanced
same,effect on toxicity of diazinon,[7]; 0.25% diazinon,significantly enhanced
same,synergism with coumaphos,"[1]; 0.05% coumaphos, atrazine/coumaphos ratios of 2/1 and above",Significant synergism
same,synergism with diazinon,"[1]; diazinon 0.025%, similar ratios, to a lesser extent than coumaphos",Synergism was also observed
CCOP(=S)(OCC)Oc1ccc2c(C)c(Cl)c(=O)oc2c1 [coumaphos],effect on larvae (mortality),"[4]; 0.3% coumaphos alone, 24 h",virtually no effect
same,resistance of the strain to the acaricide,[4]; compared with all strains tested,highest resistance
same,mortality,"[6]; coumaphos alone 0.01%, similar to the control",36%
same,mortality,brown dog tick larvae; 0.035% coumaphos used with the synergist atrazine (1%),greater than 60%
same,effect on larvae,brown dog tick larvae; higher concentrations,mortality increased
same,effect on larvae,brown dog tick larvae; less than or equal to 0.035%,no effect
same,mortality,[7]; first trial,42.6%
same,mortality,[7]; repeated trial,10.1%
same,resistance of the strain,[7],low resistance
same,resistance of the strain,[1],5.5 fold
same,mortality,[1]; coumaphos alone at 0.05%,28.9%
CCOP(=S)(OCC)Oc1cc(C)nc(C(C)C)n1 [diazinon],resistance of the strain,[7],very high level of resistance
same,resistance of the strain,[1],2.6 fold
CC1(C)C(C=C(Cl)Cl)C1C(=O)OCc1cccc(Oc2ccccc2)c1 (stereo not shown) [permethrin],resistance of the strain,[1],200 fold
CC(C)Nc1nc(Cl)nc(NC(C)C)n1 [propazine],effect on toxicity of chlorpyrifos,[2],neither atrazine nor propazine had any effect
same,effect on toxicity of coumaphos,[2],reduced the toxicity
same,effect on toxicity of pirimiphos-methyl,[2],synergized
same,effect on coumaphos toxicity,[3],substantially as described in Example 1
same,effect on diazinon toxicity,[3],substantially as described in Example 1
same,effect on pirimiphos-methyl toxicity,[3],substantially as described in Example 1
same,effect on toxicity of chlorpyrifos,[3],did synergize

# Reference: patent publication US7192905B1, “Organophosphate insecticide synergists for fly and tick control” (priority 2003, dated 2007)
